Marks after values point to notes of the source that are not given here. Non-standard residues stand in square brackets, D forms with d. Groups on a side chain read outwards from the residue. No end group written: not given here. *: point of attachment. C15 diacid = O=C(O)CCCCCCCCCCCCCC(=O)*; Palmitoyl = CCCCCCCCCCCCCCCC(=O)*; Aib = CC(C)(N)C(=O)O

The test system of assay [1] is morphine (0.6 mg/kg, s.c.)-induced emesis in ferrets. Description: Morphine-induced acute emetic model in male ferrets. Conditions: for Emesis: Duration / Emesis: Frequency / Emesis: No. of animals (responder/used) / Fidget: Duration / Fidget: Frequency / Fidget: No. of animals (responder/used) / Licking: Duration / Licking: Frequency / Licking: No. of animals (responder/used) / Retching: Duration / Retching: Frequency / Retching: No. of animals (responder/used) / Vomiting: Duration / Vomiting: Frequency / Vomiting: No. of animals (responder/used) / Emesis: Latency / Fidget: Latency / Licking: Latency / Retching: Latency / Vomiting: Latency: morphine 0.6 mg/kg s.c. 0.5 h after drug, 106-[…] s.c. (30 nmol/kg); for Emesis: Latency / Fidget: Latency / Licking: Latency / Retching: Latency / Vomiting: Latency: non-responders counted as 30 min; for Attenuation of morphine-induced emesis (in words) / Comment: Anti-Emetic Activity (inhibition) on morphine-induced emesis: male ferrets; for Attenuation of morphine-induced emesis (in words): 30 nmol/kg s.c. 30 minutes before morphine 0.6 mg/kg s.c.; for Comment: Anti-Emetic Activity (inhibition) on morphine-induced emesis: summary of the morphine experiments. Format: in vivo, ferret. Here is the method: Example 6—In-Vivo Effect of GIP Receptor Agonist Peptides on Emesis in Morphine Induced Emesis Model in Live Male Ferrets
Effect of subcutaneously administered GIP receptor agonist peptide in morphine-induced acute emetic model.
To evaluate the antiemetic effect, the GIP receptor agonist peptides other than natural human GIP were subcutaneously administered into male ferrets 30 minutes before morphine administration. […]. Up to 60 minutes after morphine administration, the condition of the ferrets was monitored to record the frequencies and time points of abdominal contraction motions, vomiting behaviors, licking with the tongue, and fidgety behavior occurring
Effects of Subcutaneously Administered GIP Receptor Agonist Peptides in Morphine-Induced Acute Emetic Model
30 nmol/kg of Compounds 3 and 5 were dissolved with a vehicle (0.09 w/v % tween 80/10% DMSO/saline), respectively, to prepare test solutions. […] of the test solutions and the vehicle were subcutaneously administered to ferrets (4 in each group), respectively. At the time of each of 4 hours, after administration, 0.6 mg/kg of morphine was subcutaneously administered. […] See results in Tables 6, 7 and 8.
(§1) 10 nmol/kg of each compound dissolved with a vehicle (0.09 w/v % tween 80/10% DMSO/saline) respectively, to prepare test solutions. […] of the test solutions and the vehicle were subcutaneously administered to ferrets (4 in each group), respectively. At the time of each of 4 hours, or 120 hours after administration, 0.6 mg/kg of morphine was subcutaneously administered. Up to 360 minutes after morphine administration, the condition of the ferrets was monitored to record the frequencies and time points of abdominal contraction motions, vomiting behaviors, licking with the tongue, and fidgety behavior occurring.
as §1, with “30 nmol/kg” for “10 nmol/kg”, “80/10% DMSO/saline),respectively,” for “80/10% DMSO/saline) respectively,”

The target in another assay is human GLP-1R (human, UniProt P43220 24-463). Description: cell-based or functional assay.
The next assay deals with T1, human GIPR (human, UniProt P48546 22-466).
T1 sequence (looked up): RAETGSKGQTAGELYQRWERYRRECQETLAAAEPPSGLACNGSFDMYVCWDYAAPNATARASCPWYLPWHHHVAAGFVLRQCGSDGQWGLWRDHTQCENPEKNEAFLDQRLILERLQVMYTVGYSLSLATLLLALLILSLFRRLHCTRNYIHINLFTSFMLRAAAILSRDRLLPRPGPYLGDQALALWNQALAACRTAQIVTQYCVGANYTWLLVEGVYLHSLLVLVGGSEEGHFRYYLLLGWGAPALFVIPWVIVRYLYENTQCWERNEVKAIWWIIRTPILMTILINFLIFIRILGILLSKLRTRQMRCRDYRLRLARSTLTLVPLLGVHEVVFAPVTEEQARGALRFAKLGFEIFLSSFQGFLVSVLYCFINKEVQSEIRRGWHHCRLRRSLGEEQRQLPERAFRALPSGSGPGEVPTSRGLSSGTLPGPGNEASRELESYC
Description: cell-based or functional assay.

Consider `CC[C@H](C)[C@H](NC(=O)[C@H](CO)NC(=O)[C@H](Cc1ccc(O)cc1)NC(=O)[C@H](CC(=O)O)NC(=O)[C@H](CO)NC(=O)[C@@H](NC(=O)[C@H](Cc1ccccc1)NC(=O)[C@@H](NC(=O)CNC(=O)[C@H](CCC(=O)O)NC(=O)[C@@H](C)NC(=O)[C@@H](N)Cc1ccc(O)cc1)[C@@H](C)O)[C@@H](C)CC)C(=O)N[C@@H](C)C(=O)N[C@@H](CCSC)C(=O)N[C@@H](CC(=O)O)C(=O)N[C@@H](CCCCN)C(=O)N[C@H](C(=O)N[C@@H](Cc1c[nH]cn1)C(=O)N[C@@H](CCC(N)=O)C(=O)N[C@@H](CCC(N)=O)C(=O)N[C@@H](CC(=O)O)C(=O)N[C@@H](Cc1ccccc1)C(=O)N[C@H](C(=O)N[C@@H](CC(N)=O)C(=O)N[C@@H](Cc1c[nH]c2ccccc12)C(=O)N[C@@H](CC(C)C)C(=O)N[C@@H](CC(C)C)C(=O)N[C@@H](C)C(=O)N[C@@H](CCC(N)=O)C(=O)N[C@@H](CCCCN)C(=O)O)C(C)C)[C@@H](C)CC` [Compound 4], for which, in assay [1] (ferrets), the “Emesis: Duration” value is 0.0 ± 0.0 min, the “Emesis: Frequency” value came to 0.0 ± 0.0, the “Emesis: No. of animals (responder/used)” value is 0/4 # and the “Fidget: Duration” value was 0.0 ± 0.0 min. Also, in assay [1] (ferrets), the “Fidget: Frequency” value was 0.0 ± 0.0, the “Fidget: No. of animals (responder/used)” value is recorded as 0/4, the “Licking: Duration” value is on record as 0.0 ± 0.0 min and the “Licking: Frequency” value was 0.0 ± 0.0. Moreover, in assay [1] (ferrets), the “Licking: No. of animals (responder/used)” value is reported as 0/4 #, the “Retching: Duration” value is 0.0 ± 0.0 min, the “Retching: Frequency” value is reported as 0.0 ± 0.0 and the “Retching: No. of animals (responder/used)” value is 0/4 #. Besides, in assay [1] (ferrets), the “Vomiting: Duration” value was found to be 0.0 ± 0.0 min, the “Vomiting: Frequency” value was determined as 0.0 ± 0.0, the “Vomiting: No. of animals (responder/used)” value is recorded as 0/4 and the “Emesis: Latency” value is 30.0 ± 0.0 min. Further, in assay [1] (ferrets), the “Fidget: Latency” value worked out at 30.0 ± 0.0 min, the “Licking: Latency” value was determined as 30.0 ± 0.0 min, the “Retching: Latency” value came to 30.0 ± 0.0 min and the “Vomiting: Latency” value amounted to 30.0 ± 0.0 min. In assay [1], the “Attenuation of morphine-induced emesis (in words)” value was “completely attenuated” and the “Comment: Anti-Emetic Activity (inhibition) on morphine-induced emesis” value is 100% inhibition.

`CC[C@H](C)[C@H](NC(=O)[C@H](CO)NC(=O)[C@H](Cc1ccc(O)cc1)NC(=O)[C@H](CC(=O)O)NC(=O)[C@H](CO)NC(=O)[C@@H](NC(=O)[C@H](Cc1ccccc1)NC(=O)[C@@H](NC(=O)CNC(=O)[C@H](CCC(=O)O)NC(=O)[C@@H](C)NC(=O)[C@@H](N)Cc1ccc(O)cc1)[C@@H](C)O)[C@@H](C)CC)C(=O)N[C@@H](C)C(=O)N[C@@H](CCSC)C(=O)N[C@@H](CC(=O)O)C(=O)N[C@@H](CCCCN)C(=O)N[C@H](C(=O)N[C@@H](Cc1c[nH]cn1)C(=O)N[C@@H](CCC(N)=O)C(=O)N[C@@H](CCC(N)=O)C(=O)N[C@@H](CC(=O)O)C(=O)N[C@@H](Cc1ccccc1)C(=O)N[C@H](C(=O)N[C@@H](CC(N)=O)C(=O)N[C@@H](Cc1c[nH]c2ccccc12)C(=O)N[C@@H](CC(C)C)C(=O)N[C@@H](CC(C)C)C(=O)N[C@@H](C)C(=O)N[C@@H](CCC(N)=O)C(=O)N[C@@H](CCCCN)C(=O)N1CCC[C@H]1C(=O)N[C@@H](CO)C(=O)N[C@@H](CO)C(=O)NCC(=O)N[C@@H](C)C(=O)N1CCC[C@H]1C(=O)N1CCC[C@H]1C(=O)N1CCC[C@H]1C(=O)N[C@@H](CO)C(N)=O)C(C)C)[C@@H](C)CC` [Compound 11]: in assay [1] (ferrets), the “Emesis: Duration” value stood at 0.0 ± 0.0 min, the “Emesis: Frequency” value was 0.0 ± 0.0, the “Emesis: No. of animals (responder/used)” value is 0/4 # and the “Fidget: Duration” value stood at 0.0 ± 0.0 min. In assay [1] (ferrets), the “Fidget: Frequency” value turned out to be 0.0 ± 0.0, the “Fidget: No. of animals (responder/used)” value is 0/4, the “Licking: Duration” value is reported as 0.0 ± 0.0 min and the “Licking: Frequency” value was determined as 0.0 ± 0.0. In assay [1] (ferrets), the “Licking: No. of animals (responder/used)” value is 0/4 #, the “Retching: Duration” value is on record as 0.0 ± 0.0 min, the “Retching: Frequency” value is 0.0 ± 0.0 and the “Retching: No. of animals (responder/used)” value is listed as 0/4 #. In addition, in assay [1] (ferrets), the “Vomiting: Duration” value came out at 0.0 ± 0.0 min, the “Vomiting: Frequency” value is given as 0.0 ± 0.0, the “Vomiting: No. of animals (responder/used)” value is reported as 0/4 and the “Emesis: Latency” value came to 30.0 ± 0.0 min. In addition, in assay [1] (ferrets), the “Fidget: Latency” value came out at 30.0 ± 0.0 min, the “Licking: Latency” value is recorded as 30.0 ± 0.0 min, the “Retching: Latency” value was 30.0 ± 0.0 min and the “Vomiting: Latency” value worked out at 30.0 ± 0.0 min. For the same molecule, in assay [1], the “Attenuation of morphine-induced emesis (in words)” value is listed as “completely attenuated” and the “Comment: Anti-Emetic Activity (inhibition) on morphine-induced emesis” value came out at 100% inhibition.

Regarding “Ac-(D-Tyr)AEGTFISDYSIAMDAIHQQDFVNWLLAQLys-(palmitoyl acyl fatty acid)-NH2 (Ac-[dY]AEGTFISDYSIAMDAIHQQDFVNWLLAQK(Palmitoyl)-NH2; SMILES CCCCCCCCCCCCCCCC(=O)NCCCC[C@H](NC(=O)[C@H](CCC(N)=O)NC(=O)[C@H](C)NC(=O)[C@H](CC(C)C)NC(=O)[C@H](CC(C)C)NC(=O)[C@H](Cc1c[nH]c2ccccc12)NC(=O)[C@H](CC(N)=O)NC(=O)[C@@H](NC(=O)[C@H](Cc1ccccc1)NC(=O)[C@H](CC(=O)O)NC(=O)[C@H](CCC(N)=O)NC(=O)[C@H](CCC(N)=O)NC(=O)[C@H](Cc1c[nH]cn1)NC(=O)[C@@H](NC(=O)[C@H](C)NC(=O)[C@H](CC(=O)O)NC(=O)[C@H](CCSC)NC(=O)[C@H](C)NC(=O)[C@@H](NC(=O)[C@H](CO)NC(=O)[C@H](Cc1ccc(O)cc1)NC(=O)[C@H](CC(=O)O)NC(=O)[C@H](CO)NC(=O)[C@@H](NC(=O)[C@H](Cc1ccccc1)NC(=O)[C@@H](NC(=O)CNC(=O)[C@H](CCC(=O)O)NC(=O)[C@H](C)NC(=O)[C@@H](Cc1ccc(O)cc1)NC(C)=O)[C@@H](C)O)[C@@H](C)CC)[C@@H](C)CC)[C@@H](C)CC)C(C)C)C(N)=O) [Compound 7]”, the “Ferrets in which the vomiting symptom was observed (in words)” value in assay [1] (ferrets, morphine administered 4 hours after administration) is on record as “all of the 4 ferrets”.

Consider YXEGTFISDYSIAMDKIHQQDFVNWLLAQKGKKNDWKHNITQK (Aib at 2; Lys-(gamma-glutamic acid)3-palmitoyl at 43; C-terminal -OH) [Compound No. 19], for which the “GLP1R pEC50” value with human GLP-1R came out at 8.26.

Regarding Y[Aib]EGTFISDYSIALDKIHQQK([ethylene glycol-ethylene glycol-C15 diacid])FVNWLLAQRG-OH [Compound No. 24], the “GIPR EC50 nM (A)” value in the assay with human GIPR is < 0.001 nM.

Y[Aib]EGTFISDYSIALDKIHQQK([ethylene glycol-ethylene glycol-C15 diacid])FVNWLLAQR-NH2 [Compound No. 28]: the “GIPR EC50 nM (A)” value with human GIPR is < 0.001 nM.

With Y[dA]EGTFISDYSIAMDKIHQQDFVNWLLAQKGKKNDWK(Palmitoyl)HNIIQ-NH2 [Compound No. 2], in the assay with human GLP-1R, the “GLP1R EC50 nM (B)” value is 5 nM and the “GLP1R pEC50” value is 8.3.

Regarding Y[Aib]EGTFISDYSIALDKIHQQDFVNWLLAQK([ethylene glycol-ethylene glycol-C15 diacid])G-OH [Compound No. 31], the “GIPR EC50 nM (A)” value in the assay with human GIPR is 0.002 nM.

As for Y[dA]EGTFISDYSIAMDKIHQQDFVNWLLAQK-OH [Compound No. 4], in the assay with human GLP-1R, the “GLP1R EC50 nM (B)” value came to 355 nM and the “GLP1R pEC50” value amounted to 6.5.

Values taken from US20220016215A1, “GIP RECEPTOR AGONIST PEPTIDE COMPOUNDS AND USES THEREOF” (TAKEDA PHAARMACEUTICAL COMPANY LIMITED, priority 2018, published 2022).
